Laboratory results published in patent publication US9617222B1, “Alkynyl indazole derivative and use thereof” (SENJU PHARMACEUTICAL CO., LTD., priority 2014, dated 2017).
In brackets after ≈: the same amount, converted by molar mass.

What was measured:
[1] = tested on: Human Retinal Microvascular Endothelial (hRMVE) Cells (hRMVEC); experiment: Growth inhibition of hRMVE cells under VEGF stimulation (MTT assay); assay type: cell-based; conditions: recombinant human VEGF, 48 hours, read-out: Cell Growth Inhibition Activity
[2] = Solubility test in 0.1% phosphate buffer solution (pH 7.0); assay type: physicochemical; conditions: for solubility: aqueous buffer, thermodynamic from solid, 0.1% phosphate buffer solution (pH 7.0), room temperature overnight
Procedure: The mixture was subjected to ultrasonic irradiation for 30 seconds, and then shaken at room temperature overnight. The resulting suspension was left at rest at room temperature for 30 minutes, then filtered through a chromatography disc (0.20 μm) to prepare a sample solution. The sample solution and the standard solution were analyzed by LC-MS (product name: ACQUITY UPLC H-CLASS SYSTEM and Xevo TQ-S, produced by Nihon Waters K.K.), and a solubility was calculated from the obtained peak area value by an external standard method.

[3] = Drug penetrating test to retina/choroid after instillation; assay type: in vivo, rabbit (Japanese white rabbit); conditions: rabbit, 2 hours after instillation; for concentration at 2 h: Japanese white, retina/choroid, topical, 50 μL/eye of 0.25% suspension, 0.25% suspension eye drop 50 μL/eye, average ± standard deviation; for drug penetrating concentration in the retina/choroid compared with compound B: p≦0.05
Procedure: For the compounds 8, 27 and B produced in Examples, drug penetrating concentrations to retina/choroid tissues after instillation were measured. […] In order to measure the drug concentration in the retina/choroid tissues, the eye drop was administered to rabbits (Japanese white rabbit) at 50 μL/eye, the rabbits were euthanized 2 hours after instillation, and the eyeballs were excised. The excised eyeballs were frozen with liquid nitrogen, split into two parts along the equatorial plane, and then the retina/choroid tissues were sampled from the posterior eye segment. In order to extract the compound from the sampled tissues, the tissues were finely cut in methanol to prepare a lysate, and subsequently the lysate was centrifuged to collect the supernatant. To the extracted solution of the compound from the supernatant, an equivalent amount of ultrapure water was added, and the solution was filtered through a membrane filter (0.22 μm), and the filtrate was designated as a final measurement solution. The drug concentration in the filtrate was analyzed by liquid chromatography mass spectrometry (LC/MS/MS), and the compound concentration in the retina/choroid tissues was calculated from the peak area value obtained by an external standard method. Analysis conditions of LC/MS/MS are as below. For the compound concentration in the retina/choroid, null hypothesis test was carried out using JMP (registered trademark) (SAS Institute Inc.), the outlier was excluded, and then the average value±standard deviation was used.

Compound	IC50 [1]	solubility [2]	concentration at 2 h [3]	drug penetrating concentration in the retina/choroid compared with compound B [3]	solubility in aqueous solution (in words) ([2]; aqueous solution)	photostability in solution (in words)
CNC(=O)c1ccccc1Sc1ccc2c(C#Cc3ccc(NC(=O)NCCOCCOCCOC)cc3)n[nH]c2c1 [Compound 8, 2-[(3-{[4-(3-{2-[2-(2-methoxyethoxy)ethoxy]ethyl}ureido)phenyl]ethynyl}-1H-indazol-6-yl)thio]-N-methylbenzamide]	1.2 nM	1 µg/mL (≈ 1.7 µM)	2.6 ± 1.04 ng/g	significantly higher		
CNC(=O)c1ccccc1Sc1ccc2c(C#Cc3ccc(NCCOCCOCCOC)cc3)n[nH]c2c1 [Compound 27, 2-[(3-{[4-({2-[2-(2-methoxyethoxy)ethoxy]ethyl}amino)phenyl]ethynyl}-1H-indazol-6-yl)thio]-N-methylbenzamide]	1.2 nM	0.48 µg/mL (≈ 0.881 µM)	1.62 ± 0.68 ng/g	significantly higher		
CNC(=O)c1ccccc1Sc1ccc2c(/C=C/c3ccccn3)n[nH]c2c1 [Compound A, 6-[2-(methylcarbamoyl)phenylsulfanyl]-3-E-[2-(pyridine-2-yl)ethenyl]indazole, reference compound]		0.045 µg/mL (≈ 0.116 µM)			low	poor photostability
CNC(=O)c1ccccc1Sc1ccc2c(C#Cc3ccccn3)n[nH]c2c1 [Compound B, 6-[2-(methylcarbamoyl)phenylsulfanyl]-3-[2-(pyridine-2-yl)ethynyl]indazole, reference compound]	1.6 nM	0.084 µg/mL (≈ 0.218 µM)	0.51 ± 0.1 ng/g			
